In US4939173A, “Aryloxy alkanols as anti-retrovirus agents” (Merrell Dow Pharmaceuticals Inc., priority 1988, dated 1990):
≈ marks a conversion by molar mass, not a printed value.

Key:
[1] = tested on: HIV and other retroviruses; details: previously shown; cited from earlier work
[2] = tested on: Moloney murine leukemia virus (MoLV); experiment: in vitro XC plaque assay: inhibition of murine leukemia virus plaque growth (mouse SC-1 cells, rat XC cells); format: cell-based; details: SC1, compounds added 2 hours prior to virus, read-out: IC50 (concentration giving a 50% inhibition of virus plaque growth)
Procedure: This assay was performed according to the method of Rowe et al. (Virology, 1970, 42, 1136-39) as previously described by L. Hsu, et al. (J. Virological Methods, 1980, 1, 167-77) and T. L. Bowlin and M. R. Proffitt (J. Interferon Res., 983, 3(1), 19-31). Mouse SC-1 cells (fibroblast) (10^5) were seeded into each well of 6-well cluster plates (Costar #3506) in 4 ml Minimum Essential Medium (MEM) with 10% Fetal Calf Serum (FCS). Following an 18 hour incubation period (37° C.), Moloney murine leukemia virus (MoLV) was applied at a predetermined titer to give optimal (i.e. countable) numbers of virus plaques. Compounds were added 2 hours prior to addition of the virus. Three days later the culture medium was removed, the SC-1 cell monolayers were exposed to UV irradiation (1800 ergs), and rat XC cells (10^6) were seeded into each well in 4 ml MEM. Following an additional 3 day incubation (37° C.), these cells were fixed with ethyl alcohol (95%) and stained with 0.3% crystal violet. Plaques were then counted under low magnification. The antiviral activities of various compounds of this invention are tabulated in Table I in terms of the IC50, i,e, the concentration giving a 50% inhibition of virus plaque growth.

[3] = tested on: HIVlGB8 strain of HIV-1; experiment: anti-HIV activity in JM T-cells pretreated with HIV-1 (syncytial cell count and p24 antigen); format: cell-based; details: after 4 days; for Syncytial count: untreated 29
Procedure: To further confirm the antiretroviral activity of these compounds, 6-(4-phenylphenoxy)hexan-1-ol was evaluated for activity against HIV. Following overnight pretreatment of T-cells (JM cells) with the HIVlGB8 strain of HIV-1, 6-(4-phenylphenoxy)hexan-1-ol was added to the cell cultures at concentrations of 15 and 7.5 μg/ml. After 4 days the number of synctial cells in the cell culture and the amount of p24 antigen, also a measure of viral replication, were determined.

## heparin
[1]
  activity against HIV and other retroviruses: activity against HIV and other retroviruses

## OCCCCCCOc1ccc(-c2ccccc2)cc1 [6-(4-Phenylphenoxy)hexan-1-ol]
[2]
  IC50: 2.5 to 5 µg/mL (≈ 9.25 to 18.5 µM)
[3]; 7.5 μg/ml
  Syncytial count: 8
[3]; 15 μg/ml
  Syncytial count: 0
[3]; 15 μg/ml, untreated 801
  P24 antigen: 62 pg × 10^3 /ml
[3]; Human immunodeficiency virus 1, T-cell, 96 h, 7.5 μg/ml, syncytial count vs untreated
  inhibition at 7.5 µg/mL: 72%
[3]; Human immunodeficiency virus 1, T-cell, 96 h, 15 μg/ml, syncytial count vs untreated
  inhibition at 15 µg/mL: 100%

## OCCCCOc1ccc(OCc2ccccc2)cc1 [4-(4-Benzyloxyphenoxy)butan-1-ol, 4-(4-Benzyloxyphenoxy)-butan-1-ol]
[2]
  IC50: 1 to 10 µg/mL (≈ 3.67 to 36.7 µM)

## OCCCCCCOc1ccccc1 [6-Phenoxyhexan-1-ol, 6-phenoxyhexan-1-ol]
[2]
  IC50: 1 µg/mL (≈ 5.15 µM)

## OCCCCCCOc1ccc(Cc2ccccc2)cc1 [6-(4-Benzylphenoxy)hexan-1-ol]
[2]
  IC50: 1 to 10 µg/mL (≈ 3.52 to 35.2 µM)

## O[C@H]1[C@H](O)[C@@H](O)CN2CC[C@H](O)[C@H]12 [castanospermine]
[1]
  activity against HIV and other retroviruses: activity against HIV and other retroviruses

## OCCCCCCOc1ccc(OCc2ccccc2)cc1 [6-(4-Benzyloxyphenoxy)hexan-1-ol]
[2]
  IC50: 1 to 10 µg/mL (≈ 3.33 to 33.3 µM)

## OCCCCCCOc1ccc2ccccc2c1 [6-(2-Naphthylenyloxy)hexan-1-ol, 6-(2-naphthylenyloxy)hexan-1-ol]
[2]
  IC50: 5 to 10 µg/mL (≈ 20.5 to 40.9 µM)

## O=C(O)CCC(=O)OCCCCCCOc1ccc(-c2ccccc2)cc1 [6-(4-PhenYlphenoxV)-1-hexYl succinate (monoester)]
[2]
  IC50: 1 to 10 µg/mL

## Cc1cc(C)c(OCCCCCCO)c(C)c1 [6-(2,4,6-Trimethylphenoxy)hexan-1-ol, 6-(2,4,6-trimethylphenoxy)hexan-1-ol]
[2]
  IC50: 5 µg/mL (≈ 21.2 µM)
